From US11478460B2, “Diaryl substituted 6,5-fused ring compounds as C5aR inhibitors” (CHEMOCENTRYX, INC., priority 2017, dated 2022) come the findings set out here.

Structures are written as SMILES.

A word on the IC50: it is the concentration needed to halve the response being measured.

In the assay the target is C5aR (Homo sapiens (Human), UniProt P21730). The assay is described as follows: Chemotaxis assay using U937 cells (C5aR mediated migration). Type of assay: cell-based. Conditions: read-out: Mig IC50. The procedure, abridged: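 U937 monocytic cells, pretreated overnight with 0.5 mM cyclic AMP, placed at 100,000 cells in the upper well above 5 μm polycarbonate filters. Lower well held 0.03 nM C5a plus compound in HBSS/1% FBS; after 1.5 h at 37° C migrated cells counted directly or by CyQuant, giving IC50.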
Sequence of C5aR (P21730 whole entry): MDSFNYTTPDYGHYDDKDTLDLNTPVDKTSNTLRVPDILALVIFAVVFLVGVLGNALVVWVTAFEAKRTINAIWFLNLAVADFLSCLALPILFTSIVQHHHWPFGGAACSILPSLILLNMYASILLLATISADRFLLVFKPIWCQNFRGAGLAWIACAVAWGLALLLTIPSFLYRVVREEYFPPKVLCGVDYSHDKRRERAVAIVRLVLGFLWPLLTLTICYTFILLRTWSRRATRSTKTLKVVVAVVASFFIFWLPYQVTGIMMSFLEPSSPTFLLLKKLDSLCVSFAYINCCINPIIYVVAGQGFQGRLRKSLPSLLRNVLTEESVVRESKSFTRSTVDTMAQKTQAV
Take `Cc1cccc(OCC(C)C)c1-n1nc2c(c1-c1ccc(NC(N)=O)cc1)CN(Cc1c(F)cccc1F)CC2` [Example 1.356]: the IC50 lay in the range of 5 to 50 nM.

For the molecule `CCc1cccc(CC)c1-n1nc2c(c1-c1cc(F)c(NC(N)=O)cc1F)CN(CC1(C)COC1)C(C)(C)C2` [Example 1.010], the half-inhibitory concentration (IC50) was in the range of 5 to 50 nM.

Take `Cc1ccc(C(C)(C)C)cc1N1CCc2nn(-c3c(C)cccc3OC(C)C)c(-c3ccc(NC(N)=O)cc3)c2C1` [Example 1.444]: the 50% inhibitory concentration (IC50) is at most 5 nM.

Consider `COc1cccc(C)c1-n1nc2c(c1-c1ccc(NC(N)=O)cc1)CN(c1ncccc1C)CC2` [Example 1.408], for which the concentration for half-maximal inhibition (IC50) was 50 to 500 nM.

In the case of `Cc1cc(C)c(CN2CCc3nn(-c4c(C)cccc4OCC(C)C)c(-c4ccc(NC(N)=O)cc4)c3C2)c(C)c1` [Example 1.365], the 50% inhibitory concentration (IC50) was at most 5 nM.

Regarding `Cc1cccc(C)c1-n1nc2c(c1-c1cc(F)c(NC(N)=O)cc1F)CN(C(CC(C)(C)O)c1ccccc1)CC2` (stereo not shown) [Example 1.071], the IC50 was in the range of 5 to 50 nM.

As for `CCc1cccc(CC)c1-n1nc2c(c1-c1cc(F)c(NC(N)=O)cc1F)CN(Cc1cc(F)ccc1C(F)(F)F)CC2` [Example 1.028], the concentration for half-maximal inhibition (IC50) is at most 5 nM.

In the case of `Cc1cccc(OCC(C)C)c1-n1nc2c(c1-c1ccc(NC(N)=O)cc1)CN(c1cnc(C(F)(F)F)cn1)CC2` [Example 1.341], the 50% inhibitory concentration (IC50) was in the range of 5 to 50 nM.

Turning to `Cc1cc(N)ccc1-c1c2c(nn1-c1c(C)cccc1C)CCN(c1ccccc1C(C)C)C2` [Example 1.468], the half-maximal inhibitory concentration (IC50) fell in the range of 50 to 500 nM.

With `Cc1cccc(OC(C)C)c1-n1nc2c(c1-c1ccc(N)cc1)CN(c1ccccc1C(C)C)CC2` [Example 1.465], the IC50 fell in the range of 5 to 50 nM.

As for `CCC(c1ccccc1)N1CCc2nn(-c3c(C)cccc3C)c(-c3cc(F)c(NC(N)=O)cc3F)c2C1` (stereo not shown) [Example 1.096], the half-maximal inhibitory concentration (IC50) is at most 5 nM.

Take `CCc1cccc(CC)c1-n1nc2c(c1-c1cc(F)c(NC(N)=O)cc1F)CN(Cc1ccc(F)cc1C(F)(F)F)C(C)(C)C2` [Example 1.012]: the IC50 is at most 5 nM.

On to `Cc1cccc(OCC(C)C)c1-n1nc2c(c1-c1ccc(CO)cc1)CN(c1ccccc1C(C)(C)C)CC2` [Example 1.450], for which the half-maximal inhibitory concentration (IC50) is 50 to 500 nM.

Take `Cc1cc(NC(N)=O)c(F)cc1-c1c2c(nn1-c1c(C)cccc1OCC(C)C)CCN(c1ncc(C(F)(F)F)cc1F)C2` [Example 1.211]: the half-inhibitory concentration (IC50) was at most 5 nM.

As to `Cc1cccc(OCC(C)C)c1-n1nc2c(c1-c1ccc(NC(N)=O)c(F)c1)CN(CC1CCOC1)CC2` (stereo not shown) [Example 1.248], the 50% inhibitory concentration (IC50) fell in the range of 50 to 500 nM.

Turning to `CCc1cccc(CC)c1-n1nc2c(c1-c1cc(F)c(NC(N)=O)cc1F)CN(CC1CCOCC1)C(C)(C)C2` [Example 1.040], the IC50 was at most 5 nM.

On to `Cc1cccc(OCC(C)C)c1-n1nc2c(c1-c1ccc(NC(N)=O)cc1)CN(c1cc(C(F)(F)F)ccc1F)CC2` [Example 1.368], for which the IC50 was 5 to 50 nM.

In the case of `COc1cccc(C)c1-n1nc2c(c1-c1ccc(N)cc1)CN(c1ccccc1C)CC2` [Example 1.491], the IC50 was 50 to 500 nM.

Consider `Cc1cccc(C)c1-n1nc2c(c1-c1cc(F)c(NC(N)=O)cc1F)CN(c1ncc(C(C)C)cc1Cl)CC2` [Example 1.113], for which the IC50 was at most 5 nM.

For the molecule `Cc1cccc(OCC(C)C)c1-n1nc2c(c1-c1ccc(NC(N)=O)cc1)CN(Cc1ccccc1Cl)CC2` [Example 1.313], the half-inhibitory concentration (IC50) was 5 to 50 nM.

As to `Cc1cccc(OCC(C)C)c1-n1nc2c(c1-c1ccc(NC(N)=O)cc1)CN(CC(C)(C)C(F)(F)F)CC2` [Example 1.373], the IC50 was in the range of 5 to 50 nM.

As for `Cc1cccc(C)c1-n1nc2c(c1-c1cc(F)c(NC(N)=O)cc1F)CN(c1ncc(C(C)(C)O)cc1Cl)CC2` [Example 1.104], the IC50 was 50 to 500 nM.

`Cc1cccc(OCC(C)C)c1-n1nc2c(c1-c1ccc(NC(N)=O)cc1)CN(C(=O)COC(C)(C)C)CC2` [Example 1.424]: the half-maximal inhibitory concentration (IC50) is over 500 nM.

`CCc1cccc(CC)c1-n1nc2c(c1-c1cc(F)c(NC(N)=O)cc1F)CN(CC)C(C)(C)C2` [Example 1.009]: the half-inhibitory concentration (IC50) lay within 5 to 50 nM.

Regarding `Cc1ccc(C(C)(C)C)cc1N1CCc2nn(-c3c(C)cccc3C)c(-c3ccc(O)cc3)c2C1` [Example 1.452], the 50% inhibitory concentration (IC50) was 5 to 50 nM.

As to `Cc1cccc(OCC(C)C)c1-n1nc2c(c1-c1ccc(NC(N)=O)cc1)CN(Cc1ccc(F)cc1F)CC2` [Example 1.316], the half-maximal inhibitory concentration (IC50) is at most 5 nM.

Take `CCc1cccc(CC)c1-n1nc2c(c1-c1ccc(NC(N)=O)c(F)c1)CN(C(C)C1CCCCC1)CC2` (stereo not shown) [Example 1.223]: the half-inhibitory concentration (IC50) is at most 5 nM.

Turning to `CCc1cccc(CC)c1-n1nc2c(c1-c1cc(F)c(NC(N)=O)cc1F)CN(C(C)c1ccc(F)cc1)CC2` (stereo not shown) [Example 1.152], the IC50 was at most 5 nM.

On to `CCc1cccc(CC)c1-n1nc2c(c1-c1cc(F)c(NC(N)=O)cc1F)CN(C(C)(C)CC)CC2` [Example 1.212], for which the half-inhibitory concentration (IC50) was at most 5 nM.

Consider `Cc1cccc(OCC(C)C)c1-n1nc2c(c1-c1ccc(NC(N)=O)cc1)CN(Cc1c(Cl)cccc1Cl)CC2` [Example 1.367], for which the half-inhibitory concentration (IC50) lay in the range of 5 to 50 nM.

As to `Cc1cccc(C)c1-n1nc2c(c1-c1cc(F)c(NC(N)=O)cc1F)CN(c1ncc(Cl)cc1C#N)CC2` [Example 1.102], the 50% inhibitory concentration (IC50) is at most 5 nM.

Regarding `Cc1cc(F)c(C(C)C)cc1N1CCc2nn(-c3c(C)cccc3OCC(C)C)c(-c3ccc(NC(N)=O)cc3)c2C1` [Example 1.427], the IC50 was at most 5 nM.

For the molecule `Cc1cccc(OCC(C)C)c1-n1nc2c(c1-c1ccc(NC(N)=O)cc1)CN(Cc1ccc(C(F)(F)F)cc1C(F)(F)F)CC2` [Example 1.357], the IC50 is at most 5 nM.

As to `CCc1cccc(CC)c1-n1nc2c(c1-c1cc(F)c(NC(N)=O)cc1F)CN(C(C)(C)c1ccc(F)cc1)CC2` [Example 1.192], the IC50 is at most 5 nM.

Regarding `Cc1cccc(OCC(C)C)c1-n1nc2c(c1-c1ccc(NC(N)=O)cc1)CN(Cc1c(F)cccc1Cl)CC2` [Example 1.350], the half-maximal inhibitory concentration (IC50) was in the range of 5 to 50 nM.

Consider `COc1cccc(C)c1-n1nc2c(c1-c1ccc(NC3CCCC3)cc1)CN(c1ccccc1C)CC2` [Example 1.490], for which the IC50 is over 500 nM.

Take `CCc1cccc(CC)c1-n1nc2c(c1-c1cc(F)c(N)cc1F)CN(Cc1ccc(C(F)(F)F)cc1C(F)(F)F)CC2` [Example 1.004]: the IC50 was in the range of 5 to 50 nM.

As for `Cc1cccc(C)c1-n1nc2c(c1-c1ccc(C(N)=O)cc1)CN(C(=O)OC(C)(C)C)CC2` [Example 1.420], the half-maximal inhibitory concentration (IC50) is over 500 nM.

For the molecule `Cc1cccc(OCC(C)C)c1-n1nc2c(c1-c1ccc(NC(N)=O)cc1)CN(CC(C)(C)C#N)CC2` [Example 1.349], the half-maximal inhibitory concentration (IC50) is 50 to 500 nM.

With `Cc1cccc(OCC(C)C)c1-n1nc2c(c1-c1ccc(NC(N)=O)cc1)CN(C(C)c1cccc(C(F)(F)F)c1)CC2` (stereo not shown) [Example 1.319], the IC50 was at most 5 nM.

Turning to `CCc1cccc(CC)c1-n1nc2c(c1-c1ccc(NC(N)=O)cc1)CN(C(C)c1ccccc1C(F)(F)F)CC2` (stereo not shown) [Example 1.295], the IC50 lay in the range of 5 to 50 nM.

For the molecule `CCc1cccc(CC)c1-n1nc2c(c1-c1cc(F)c(NC(N)=O)cc1F)CN(Cc1ccc(C)cc1C(F)(F)F)CC2` [Example 1.034], the IC50 is at most 5 nM.

Take `CCc1cccc(CC)c1-n1nc2c(c1-c1ccc(NC(N)=O)cc1)CN(Cc1cc(Cl)ccc1OC(C)C)CC2` [Example 1.284]: the half-maximal inhibitory concentration (IC50) fell in the range of 5 to 50 nM.

With `CCc1cccc(CC)c1-n1nc2c(c1-c1cc(F)c(NC(N)=O)cc1F)CN(Cc1cc(Cl)ccc1C(F)(F)F)C(C)(C)C2` [Example 1.031], the IC50 is at most 5 nM.

Take `NC(=O)Nc1cc(F)c(-c2c3c(nn2-c2c(F)cccc2F)CCN(c2ncc(Cl)cc2Cl)C3)cc1F` [Example 1.183]: the IC50 lay within 5 to 50 nM.

For the molecule `Cc1cccc(OCC(C)C)c1-n1nc2c(c1-c1cc(F)c(NC(N)=O)cc1F)CN(c1ncc(F)cn1)CC2` [Example 1.159], the 50% inhibitory concentration (IC50) is at most 5 nM.

Turning to `Cc1cccc(OCC(C)C)c1-n1nc2c(c1-c1ccc(NC(N)=O)cc1)CN(c1ncccc1C(F)(F)F)CC2` [Example 1.271], the half-maximal inhibitory concentration (IC50) fell in the range of 5 to 50 nM.

Turning to `COc1cc(NC(N)=O)c(F)cc1-c1c2c(nn1-c1c(C)cccc1C)CCN(c1ccc(Cl)cc1Cl)C2` [Example 1.114], the half-inhibitory concentration (IC50) was at most 5 nM.

As to `Cc1cccc(C)c1-n1nc2c(c1-c1cc(F)c(NC(N)=O)cc1F)CN(c1ncc(C(F)(F)F)cc1Cl)CC2` [Example 1.091], the IC50 is at most 5 nM.

`Cc1cccc(OCC(C)C)c1-n1nc2c(c1-c1cc(F)c(NC(N)=O)cc1F)CN(c1ncncc1Cl)CC2` [Example 1.141]: the IC50 is at most 5 nM.

As for `Cc1cccc(OCC(C)C)c1-n1nc2c(c1-c1ccc(NC(N)=O)c(F)c1)CN(Cc1nccn1C)CC2` [Example 1.233], the half-inhibitory concentration (IC50) was over 500 nM.

Turning to `COc1cccc(F)c1-n1nc2c(c1-c1cc(F)c(NC(N)=O)cc1F)CN(c1ncc(Cl)cc1Cl)CC2` [Example 1.179], the 50% inhibitory concentration (IC50) was in the range of 5 to 50 nM.

On to `CCc1cccc(CC)c1-n1nc2c(c1-c1cc(F)c(NC(N)=O)cc1F)CN(CC1CCOC1)CC2` (stereo not shown) [Example 1.020], for which the 50% inhibitory concentration (IC50) was in the range of 5 to 50 nM.

Consider `Cc1cnc(N2CCc3nn(-c4c(C)cccc4OCC(C)C)c(-c4ccc(NC(N)=O)cc4)c3C2)c(C(F)(F)F)c1` [Example 1.296], for which the 50% inhibitory concentration (IC50) was at most 5 nM.

Consider `CCc1cccc(CC)c1-n1nc2c(c1-c1cc(F)c(NC(N)=O)cc1F)CN(Cc1ccc(C(C)(C)C)cc1)CC2` [Example 1.054], for which the IC50 was at most 5 nM.

Regarding `CCc1cccc(CC)c1-n1nc2c(c1-c1cc(F)c(NC(N)=O)cc1F)CN(Cc1ccc(Cl)cc1C(F)(F)F)CC2` [Example 1.076], the IC50 is at most 5 nM.

`Cc1cccc(OCC(C)C)c1-n1nc2c(c1-c1ccc(NC(N)=O)cc1)CN(Cc1cccc(C(F)(F)F)c1)CC2` [Example 1.338]: the half-maximal inhibitory concentration (IC50) was 5 to 50 nM.

As for `COc1cccc(C)c1-n1nc2c(c1-c1ccc(NC(C)C)cc1)CN(c1ccccc1C)CC2` [Example 1.489], the half-inhibitory concentration (IC50) is over 500 nM.

Take `Cc1cccc(OCC(C)C)c1-n1nc2c(c1-c1ccc(NC(N)=O)cc1)CN(Cc1c(C(F)(F)F)ccc(Cl)c1F)CC2` [Example 1.299]: the IC50 is at most 5 nM.

For `Cc1cccc(CCC(C)C)c1-n1nc2c(c1-c1ccc(NC(N)=O)cc1)CN(C(=O)OC(C)(C)C)CC2` [Example 1.414], the IC50 lay within 50 to 500 nM.

As to `Cc1cccc(OCC(C)C)c1-n1nc2c(c1-c1ccc(NC(N)=O)c(F)c1)CN(CC1CCCCC1)CC2` [Example 1.256], the IC50 is at most 5 nM.
